Measurements published in publication PMC5218480 (PLoS ONE, 2017).

Test system: MV-4-11 cells
Assay: Gene expression microarray analysis (Affymetrix PrimeView) and GSEA
Type: cell-based, human
Design: RFU PODN (11730768_x_at) / Fold change /veh PODN (11730768_x_at) / RFU LINC00158 (11744669_a_at) / Fold change /veh LINC00158 (11744669_a_at) / RFU DUSP10 (11751237_a_at) / Fold change /veh DUSP10 (11751237_a_at) / RFU ID3 (11757404_x_at) / Fold change /veh ID3 (11757404_x_at) / RFU PLEKHG5 (11737974_s_at) / Fold change /veh PLEKHG5 (11737974_s_at) / RFU LRRC4B (11730491_at) / Fold change /veh LRRC4B (11730491_at) / RFU GIMAP4 (11747438_a_at) / Fold change /veh GIMAP4 (11747438_a_at) / RFU KRT8 (11758183_x_at) / Fold change /veh KRT8 (11758183_x_at) / RFU CNN1 (11734310_a_at) / Fold change /veh CNN1 (11734310_a_at) / RFU VPS37D (11726825_at) / Fold change /veh VPS37D (11726825_at) / RFU C10orf10 (11716522_x_at) / Fold change /veh C10orf10 (11716522_x_at) / RFU KIR2DL2 /// KIR2DL4 /// KIR2DL5A /// KIR2DL5B /// KIR2DS1 /// KIR2DS2 /// KIR2DS3 /// KIR2DS4 /// KIR3DL3 /// KIR3DL3 /// KIR3DS1 (11738374_at) / Fold change /veh KIR2DL2 /// KIR2DL4 /// KIR2DL5A /// KIR2DL5B /// KIR2DS1 /// KIR2DS2 /// KIR2DS3 /// KIR2DS4 /// KIR3DL3 /// KIR3DL3 /// KIR3DS1 (11738374_at) / RFU C1QL1 (11718748_at) / Fold change /veh C1QL1 (11718748_at) / RFU TMPRSS4 (11747572_a_at) / Fold change /veh TMPRSS4 (11747572_a_at) / RFU HAMP (11756126_x_at) / Fold change /veh HAMP (11756126_x_at) / RFU RNFT2 (11725882_a_at) / Fold change /veh RNFT2 (11725882_a_at) / RFU NR4A2 (11747474_a_at) / Fold change /veh NR4A2 (11747474_a_at) / RFU ABCC12 (11746883_a_at) / Fold change /veh ABCC12 (11746883_a_at) / RFU TMEM136 (11760407_x_at) / Fold change /veh TMEM136 (11760407_x_at) / RFU CLDN22 /// WWC2 (11732394_at) / Fold change /veh CLDN22 /// WWC2 (11732394_at) / RFU HLA-DPB1 (11760878_x_at) / Fold change /veh HLA-DPB1 (11760878_x_at) / RFU SPINT1 (11716480_a_at) / Fold change /veh SPINT1 (11716480_a_at) / RFU GAP43 (11754022_s_at) / Fold change /veh GAP43 (11754022_s_at) / RFU A4GNT (11735810_at) / Fold change /veh A4GNT (11735810_at) / RFU PRB3 (11715151_x_at) / Fold change /veh PRB3 (11715151_x_at) / RFU TUBB4B (11761932_at) / Fold change /veh TUBB4B (11761932_at) / RFU CAPN14 (11732068_a_at) / Fold change /veh CAPN14 (11732068_a_at) / RFU TMCC2 (11721928_a_at) / Fold change /veh TMCC2 (11721928_a_at) / RFU IRGQ (11745062_a_at) / Fold change /veh IRGQ (11745062_a_at) / RFU FAM174B (11720279_a_at) / Fold change /veh FAM174B (11720279_a_at) / RFU TMPRSS4 (11748680_a_at) / Fold change /veh TMPRSS4 (11748680_a_at) / RFU FAM212B (11763350_a_at) / Fold change /veh FAM212B (11763350_a_at) / RFU PLEKHG5 (11743358_a_at) / Fold change /veh PLEKHG5 (11743358_a_at) / RFU ZSCAN30 (11745921_a_at) / Fold change /veh ZSCAN30 (11745921_a_at) / RFU CMKLR1 (11741424_a_at) / Fold change /veh CMKLR1 (11741424_a_at) / RFU LOC101060620 /// MAPK8IP1 (11723275_at) / Fold change /veh LOC101060620 /// MAPK8IP1 (11723275_at) / RFU SPTSSB (11747773_x_at) / Fold change /veh SPTSSB (11747773_x_at) / RFU PRSS12 (11739890_at) / Fold change /veh PRSS12 (11739890_at) / RFU BIN1 (11741810_x_at) / Fold change /veh BIN1 (11741810_x_at) / RFU WNT11 (11732464_a_at) / Fold change /veh WNT11 (11732464_a_at) / RFU C10orf10 (11716521_a_at) / Fold change /veh C10orf10 (11716521_a_at) / RFU C5orf56 (11738089_at) / Fold change /veh C5orf56 (11738089_at) / RFU CYB561 (11721691_x_at) / Fold change /veh CYB561 (11721691_x_at) / RFU ANKRD19P (11752326_a_at) / Fold change /veh ANKRD19P (11752326_a_at) / RFU OR2T12 /// OR2T33 /// OR2T8 (11738714_s_at) / Fold change /veh OR2T12 /// OR2T33 /// OR2T8 (11738714_s_at) / RFU VCAN (11748164_a_at) / Fold change /veh VCAN (11748164_a_at) / RFU JSRP1 (11732532_at) / Fold change /veh JSRP1 (11732532_at) / RFU KRTAP10-11 (11738290_x_at) / Fold change /veh KRTAP10-11 (11738290_x_at) / RFU MYO3A (11730013_a_at) / Fold change /veh MYO3A (11730013_a_at) / RFU EBF3 (11725865_a_at) / Fold change /veh EBF3 (11725865_a_at) / RFU CAMK2N1 (11719241_x_at) / Fold change /veh CAMK2N1 (11719241_x_at) / RFU C5orf56 (11738088_a_at) / Fold change /veh C5orf56 (11738088_a_at) / RFU OLFML3 (11715873_a_at) / Fold change /veh OLFML3 (11715873_a_at) / RFU LOC100653217 /// NTM (11731650_a_at) / Fold change /veh LOC100653217 /// NTM (11731650_a_at) / RFU MAPK11 (11762145_a_at) / Fold change /veh MAPK11 (11762145_a_at) / RFU FIZ1 (11724087_x_at) / Fold change /veh FIZ1 (11724087_x_at) / RFU OASL (11726364_x_at) / Fold change /veh OASL (11726364_x_at) / RFU SOX15 (11748057_x_at) / Fold change /veh SOX15 (11748057_x_at) / RFU CD79A (11719716_a_at) / Fold change /veh CD79A (11719716_a_at) / RFU HIST1H1D (11736915_at) / Fold change /veh HIST1H1D (11736915_at) / RFU CASKIN2 (11723855_a_at) / Fold change /veh CASKIN2 (11723855_a_at) / RFU LOC730098 (11760151_x_at) / Fold change /veh LOC730098 (11760151_x_at) / RFU OR4N2 (11742367_at) / Fold change /veh OR4N2 (11742367_at) / RFU PRRT2 (11749266_a_at) / Fold change /veh PRRT2 (11749266_a_at) / RFU SNX32 (11753110_a_at) / Fold change /veh SNX32 (11753110_a_at) / RFU CDHR5 (11726645_a_at) / Fold change /veh CDHR5 (11726645_a_at) / RFU RCAN1 (11760418_a_at) / Fold change /veh RCAN1 (11760418_a_at) / RFU FAM167A (11723789_a_at) / Fold change /veh FAM167A (11723789_a_at) / RFU FAM26E (11764081_at) / Fold change /veh FAM26E (11764081_at) / RFU ISYNA1 (11749810_s_at) / Fold change /veh ISYNA1 (11749810_s_at) / RFU ACY1 (11761880_at) / Fold change /veh ACY1 (11761880_at) / RFU 11764098_at / Fold change /veh 11764098_at / RFU SAMD14 (11745864_x_at) / Fold change /veh SAMD14 (11745864_x_at) / RFU NPB (11741838_a_at) / Fold change /veh NPB (11741838_a_at) / RFU TMPRSS6 (11731388_a_at) / Fold change /veh TMPRSS6 (11731388_a_at) / RFU KRTAP10-2 (11738614_at) / Fold change /veh KRTAP10-2 (11738614_at) / RFU ARHGAP8 /// PRR5-ARHGAP8 (11727945_x_at) / Fold change /veh ARHGAP8 /// PRR5-ARHGAP8 (11727945_x_at) / RFU KRTAP5-7 /// NADSYN1 (11734609_at) / Fold change /veh KRTAP5-7 /// NADSYN1 (11734609_at) / RFU RASL12 (11751679_a_at) / Fold change /veh RASL12 (11751679_a_at) / RFU CDKN2B (11736163_a_at) / Fold change /veh CDKN2B (11736163_a_at) / RFU PRF1 (11729649_at) / Fold change /veh PRF1 (11729649_at) / RFU, ZNF638 /// ZNF638-IT1 / Fold change vs veh, ZNF638 /// ZNF638-IT1 / RFU, PANK3 / Fold change vs veh, PANK3 / RFU, SH3YL1 / Fold change vs veh, SH3YL1 / RFU, ZEB2 / Fold change vs veh, ZEB2 / RFU, NRIP1 / Fold change vs veh, NRIP1 / RFU, PTTG1IP / Fold change vs veh, PTTG1IP / RFU, CAPN2 / Fold change vs veh, CAPN2 / RFU, MED14 / Fold change vs veh, MED14 / RFU, SNORA58 / Fold change vs veh, SNORA58 / RFU, C1orf63 / Fold change vs veh, C1orf63 / RFU, LRRFIP1 / Fold change vs veh, LRRFIP1 / RFU, NDUFAF7 / Fold change vs veh, NDUFAF7 / RFU, SLC12A2 / Fold change vs veh, SLC12A2 / RFU, IBTK / Fold change vs veh, IBTK / RFU, ESF1 / Fold change vs veh, ESF1 / Fold change vs veh, TMEM50B / RFU, TAOK1 / Fold change vs veh, TAOK1 / RFU, ACBD3 / Fold change vs veh, ACBD3 / RFU, TMA16 / Fold change vs veh, TMA16 / RFU, RWDD3 / Fold change vs veh, RWDD3 / RFU, BCAT1 / Fold change vs veh, BCAT1 / RFU, EDEM3 / Fold change vs veh, EDEM3 / RFU, TMEM33 / Fold change vs veh, TMEM33 / RFU, WDR75 / Fold change vs veh, WDR75 / RFU, AHCTF1 / Fold change vs veh, AHCTF1 / RFU, TFRC / Fold change vs veh, TFRC / RFU, ZDHHC17 / Fold change vs veh, ZDHHC17 / RFU, NOM1 / Fold change vs veh, NOM1 / RFU, ARL8B / Fold change vs veh, ARL8B / RFU, ZBTB11 / Fold change vs veh, ZBTB11 / RFU, TAMM41 / Fold change vs veh, TAMM41 / RFU, KIAA1704 /// LOC100996395 / Fold change vs veh, KIAA1704 /// LOC100996395 / RFU, ING1 / Fold change vs veh, ING1 / RFU, TRMT61B / Fold change vs veh, TRMT61B / RFU, FUBP3 / Fold change vs veh, FUBP3 / RFU, TP53 / Fold change vs veh, TP53 / RFU, TNKS2 / Fold change vs veh, TNKS2 / RFU, ZFP14 / Fold change vs veh, ZFP14 / RFU, ACTR2 / Fold change vs veh, ACTR2 / RFU, PPP3R1 / Fold change vs veh, PPP3R1 / RFU, PIK3R1 / Fold change vs veh, PIK3R1 / RFU, HNRNPA1 / Fold change vs veh, HNRNPA1 / RFU, RNF170 / Fold change vs veh, RNF170 / RFU, ZNF28 / Fold change vs veh, ZNF28 / RFU, RNGTT / Fold change vs veh, RNGTT / RFU, OGT / Fold change vs veh, OGT / RFU, BRD1 / Fold change vs veh, BRD1 / RFU, MARS / Fold change vs veh, MARS / RFU, ZNF655 / Fold change vs veh, ZNF655 / RFU, FAHD1 / Fold change vs veh, FAHD1 / RFU, BDP1 / Fold change vs veh, BDP1 / RFU, LRRCC1 / Fold change vs veh, LRRCC1 / RFU, ARID1A / Fold change vs veh, ARID1A / RFU, ZNF146 / Fold change vs veh, ZNF146 / RFU, ZNF330 / Fold change vs veh, ZNF330 / RFU, GPN3 / Fold change vs veh, GPN3 / RFU, C9orf123 / Fold change vs veh, C9orf123 / RFU, N4BP2L2 / Fold change vs veh, N4BP2L2 / RFU, ARFIP1 / Fold change vs veh, ARFIP1 / RFU, FAM179B / Fold change vs veh, FAM179B / RFU, BCL10 / Fold change vs veh, BCL10 / RFU, UHRF1BP1L / Fold change vs veh, UHRF1BP1L / RFU, BET1 / Fold change vs veh, BET1 / RFU, CNOT2 / Fold change vs veh, CNOT2 / RFU, ZNF268 / Fold change vs veh, ZNF268 / Fold change vs veh, ZNF507 / RFU, DGCR2 / Fold change vs veh, DGCR2 / RFU, WDSUB1 / Fold change vs veh, WDSUB1 / Fold change vs veh, HSP90B1 /// MIR3652 / RFU, ADSS / Fold change vs veh, ADSS / RFU, GK / Fold change vs veh, GK / RFU, ZNF148 / Fold change vs veh, ZNF148 / RFU, TAF9 / Fold change vs veh, TAF9 / RFU, SLC1A5 / Fold change vs veh, SLC1A5 / RFU, SLMO2 / Fold change vs veh, SLMO2 / RFU, ABCC4 / Fold change vs veh, ABCC4 / RFU, LOC101060439 /// RAP1B / Fold change vs veh, LOC101060439 /// RAP1B / RFU, RFX7 / Fold change vs veh, RFX7 / RFU, GTPBP10 / Fold change vs veh, GTPBP10 / RFU, CNEP1R1 / Fold change vs veh, CNEP1R1 / RFU, BIVM-ERCC5 /// ERCC5 / Fold change vs veh, BIVM-ERCC5 /// ERCC5 / RFU, ILF3 / Fold change vs veh, ILF3 / RFU 11762660_at / Fold change /veh 11762660_at / RFU VCAN (11757783_s_at) / Fold change /veh VCAN (11757783_s_at) / RFU DDX43 (11728927_at) / Fold change /veh DDX43 (11728927_at) / RFU KRT8 (11758188_x_at) / Fold change /veh KRT8 (11758188_x_at) / RFU NKD1 (11759106_at) / Fold change /veh NKD1 (11759106_at) / RFU SRD5A1 (11742802_a_at) / Fold change /veh SRD5A1 (11742802_a_at) / RFU TPSAB1 /// TPSB2 (11721975_s_at) / Fold change /veh TPSAB1 /// TPSB2 (11721975_s_at) / RFU GSTM3 (11746129_a_at) / Fold change /veh GSTM3 (11746129_a_at) / RFU IL23R (11737362_x_at) / Fold change /veh IL23R (11737362_x_at) / RFU TMEM51 (11727254_a_at) / Fold change /veh TMEM51 (11727254_a_at) / RFU PIWIL2 (11732686_x_at) / Fold change /veh PIWIL2 (11732686_x_at) / RFU ORM1 (11744905_x_at) / Fold change /veh ORM1 (11744905_x_at) / RFU CCDC152 (11743942_at) / Fold change /veh CCDC152 (11743942_at) / RFU ECM1 (11717891_a_at) / Fold change /veh ECM1 (11717891_a_at) / RFU IL23R (11748794_a_at) / Fold change /veh IL23R (11748794_a_at) / RFU TNFAIP8L3 (11732012_x_at) / Fold change /veh TNFAIP8L3 (11732012_x_at) / RFU MBOAT4 (11741988_at) / Fold change /veh MBOAT4 (11741988_at) / RFU 11764193_at / Fold change /veh 11764193_at / RFU TMEM53 (11763286_at) / Fold change /veh TMEM53 (11763286_at) / RFU MAGEB2 (11727129_at) / Fold change /veh MAGEB2 (11727129_at) / RFU TMEM200A (11744735_a_at) / Fold change /veh TMEM200A (11744735_a_at) / RFU CCDC152 (11751479_a_at) / Fold change /veh CCDC152 (11751479_a_at) / RFU FAM211A (11726209_a_at) / Fold change /veh FAM211A (11726209_a_at) / RFU RGS16 (11746705_a_at) / Fold change /veh RGS16 (11746705_a_at) / RFU VCAN (11755009_s_at) / Fold change /veh VCAN (11755009_s_at) / RFU RHOB (11743442_s_at) / Fold change /veh RHOB (11743442_s_at) / RFU RGS16 (11720943_a_at) / Fold change /veh RGS16 (11720943_a_at) / RFU RGS16 (11720944_at) / Fold change /veh RGS16 (11720944_at) / RFU, VPS4B / Fold change vs veh, VPS4B / RFU, CREB1 / Fold change vs veh, CREB1 / RFU, DNAJC13 / Fold change vs veh, DNAJC13 / RFU, GNAQ / Fold change vs veh, GNAQ / RFU, CDK5R1 / Fold change vs veh, CDK5R1 / RFU, ZRANB3 / Fold change vs veh, ZRANB3 / RFU, CUL4A / Fold change vs veh, CUL4A / RFU, CCNY / Fold change vs veh, CCNY / RFU, UFL1 / Fold change vs veh, UFL1 / RFU, COG3 / Fold change vs veh, COG3 / RFU, DIAPH2 / Fold change vs veh, DIAPH2 / RFU, SKA2 / Fold change vs veh, SKA2 / RFU, AFF3 / Fold change vs veh, AFF3 / RFU, LMF1 / Fold change vs veh, LMF1 / RFU, IPO11 / Fold change vs veh, IPO11 / RFU, DFFB / Fold change vs veh, DFFB / RFU, FOXP1 / Fold change vs veh, FOXP1 / RFU, CARD8 / Fold change vs veh, CARD8 / RFU, STRN3 / Fold change vs veh, STRN3 / RFU, ADK / Fold change vs veh, ADK / RFU, RASSF2 / Fold change vs veh, RASSF2 / RFU, WIPF1 / Fold change vs veh, WIPF1 / RFU, LARP1B / Fold change vs veh, LARP1B / RFU, RASA1 / Fold change vs veh, RASA1 / RFU, RB1 / Fold change vs veh, RB1 / RFU, PPFIA1 / Fold change vs veh, PPFIA1 / RFU, MAT2A / Fold change vs veh, MAT2A / RFU, CCT5 / Fold change vs veh, CCT5 / RFU, WDR92 / Fold change vs veh, WDR92 / RFU, CUX1 / Fold change vs veh, CUX1 / RFU, TTC7A / Fold change vs veh, TTC7A / RFU, TMEM135 / Fold change vs veh, TMEM135 / RFU, DEPTOR / Fold change vs veh, DEPTOR / RFU, CPM / Fold change vs veh, CPM / RFU, DNAJB6 / Fold change vs veh, DNAJB6 / RFU, CACNA2D3 / Fold change vs veh, CACNA2D3 / RFU, DTX4 / Fold change vs veh, DTX4 / RFU, TFCP2 / Fold change vs veh, TFCP2 / RFU, GMCL1 /// GMCL1P1 / Fold change vs veh, GMCL1 /// GMCL1P1 / RFU, AEBP2 / Fold change vs veh, AEBP2 / RFU, SNHG1 /// SNORD22 /// SNORD25 /// SNORD26 /// SNORD27 /// SNORD28 /// SNORD29 /// SNORD31 / Fold change vs veh, SNHG1 /// SNORD22 /// SNORD25 /// SNORD26 /// SNORD27 /// SNORD28 /// SNORD29 /// SNORD31 / Fold change (Aza/veh), C12orf56 (ProbeSet 11735607_a_at) / Fold change (ACY-1035/veh), C12orf56 (ProbeSet 11735607_a_at) / Fold change (Aza/veh), FGFR1OP (ProbeSet 11751329_s_at) / Fold change (ACY-1035/veh), FGFR1OP (ProbeSet 11751329_s_at) / Fold change (Aza/veh), VPS36 (ProbeSet 11739960_a_at) / Fold change (ACY-1035/veh), VPS36 (ProbeSet 11739960_a_at) / RFU SYPL1 (11715823_x_at) / Fold change /veh SYPL1 (11715823_x_at) / RFU IGFBP7 (11715501_s_at) / Fold change /veh IGFBP7 (11715501_s_at) / RFU REEP3 (11722064_at) / Fold change /veh REEP3 (11722064_at) / RFU IGLL1 (11728026_x_at) / Fold change /veh IGLL1 (11728026_x_at): dose or concentration left out as unconfirmed
Settings: ProbeSet 11734782_x_at; LIST D

With `Nc1ccc(-c2cccs2)cc1NC(=O)c1ccc2c(c1)cc(C1CC1)n2CCN1CCOCC1` [ACY-1035] the “RFU, WDR92” value was 63.28 RFU.
